Assay results from PubChem BioAssay (NCI).
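Step 1: Grow cells in 96-well plates. Step 2: Expose to compound for 48 hours at 5 concentrations. Step 3: Interpolate endpoints linearly; if unreached, use highest concentration. TGI marks complete inhibition of growth.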

Assays:
Assay in all cases: growth of human tumour cells (NCI), 48 h
SK-MEL-28 melanoma = test system: SK-MEL-28 melanoma
HOP-62 NSCLC = test system: HOP-62 NSCLC
UACC-257 melanoma = test system: UACC-257 melanoma
SNB-75 CNS = test system: SNB-75 CNS
TK-10 renal = test system: TK-10 renal
NCI/ADR-RES ovarian = test system: NCI/ADR-RES ovarian
NCI-H460 lung = test system: NCI-H460 lung
SNB-19 CNS = test system: SNB-19 CNS
HCT-15 colon = test system: HCT-15 colon
ACHN renal = test system: ACHN renal
NCI-H522 lung = test system: NCI-H522 lung
IGROV1 ovarian = test system: IGROV1 ovarian
HCT-116 colon = test system: HCT-116 colon
HCC-2998 colon = test system: HCC-2998 colon
UO-31 renal = test system: UO-31 renal
HS 578T breast = test system: HS 578T breast
MCF7 breast = test system: MCF7 breast
NCI-H23 lung = test system: NCI-H23 lung
OVCAR-3 ovarian = test system: OVCAR-3 ovarian
T-47D breast = test system: T-47D breast
EKVX NSCLC = test system: EKVX NSCLC
PC-3 prostate = test system: PC-3 prostate
LOX IMVI melanoma = test system: LOX IMVI melanoma
HOP-92 NSCLC = test system: HOP-92 NSCLC
MALME-3M melanoma = test system: MALME-3M melanoma
MOLT-4 leukemia = test system: MOLT-4 leukemia
CAKI-1 renal = test system: CAKI-1 renal
MDA-MB-435 = test system: MDA-MB-435
RXF 393 renal = test system: RXF 393 renal
NCI-H226 lung = test system: NCI-H226 lung
OVCAR-5 ovarian = test system: OVCAR-5 ovarian
RPMI-8226 leukemia = test system: RPMI-8226 leukemia
HT29 colon = test system: HT29 colon
SK-MEL-5 melanoma = test system: SK-MEL-5 melanoma
COLO 205 colon = test system: COLO 205 colon
MDA-N = test system: MDA-N
U251 CNS = test system: U251 CNS
DU-145 prostate = test system: DU-145 prostate
BT-549 breast = test system: BT-549 breast
MDA-MB-231 breast = test system: MDA-MB-231 breast
SF-268 CNS = test system: SF-268 CNS
KM12 colon = test system: KM12 colon
OVCAR-4 ovarian = test system: OVCAR-4 ovarian
HL-60(TB) leukemia = test system: HL-60(TB) leukemia
SK-OV-3 ovarian = test system: SK-OV-3 ovarian
SN12C renal = test system: SN12C renal
UACC-62 melanoma = test system: UACC-62 melanoma
A498 renal = test system: A498 renal
M14 melanoma = test system: M14 melanoma
K-562 leukemia = test system: K-562 leukemia
SF-295 CNS = test system: SF-295 CNS
SW-620 colon = test system: SW-620 colon
OVCAR-8 ovarian = test system: OVCAR-8 ovarian
A549 NSCLC = test system: A549 NSCLC
786-0 renal = test system: 786-0 renal
SF-539 CNS = test system: SF-539 CNS
SK-MEL-2 melanoma = test system: SK-MEL-2 melanoma
CCRF-CEM leukemia = test system: CCRF-CEM leukemia
SR leukemia = test system: SR leukemia

Measured: TGI

NNC(=O)c1ccc[n+](CCc2ccccc2)c1
not listed: SF-539 CNS | SK-MEL-2 melanoma | CCRF-CEM leukemia | SR leukemia
> 100 µM: all other assays above

CCOC(=O)NC(=S)NN(C)C1=NCC(C)(C)S1
not listed: NCI/ADR-RES ovarian | HCC-2998 colon | NCI-H23 lung | MALME-3M melanoma | NCI-H226 lung | HT29 colon | SF-268 CNS | OVCAR-4 ovarian | M14 melanoma | OVCAR-8 ovarian
> 100 µM: all other assays above
